Results as given in PubChem BioAssay AID2060505 (Molecular Pharmacology Branch, DTP, NCI, 2025).
Several values for one entry are separate records, joined by “and”; a condition that tells them apart may be missing. Equal values may be shown once. One block for each compound: values may come before it.

Test system: 633275-114-R-J1-PDC complex spheroids, viability
Assay: Anticancer human tumor 633275-114-R-J1-PDC patient-derived endometrial adenocarcinoma cell line growth inhibition [GQUAD]
Conditions: for viability, T/C: stronger effect = lower value
Description: DNA G-quadruplex Stabilizer Agents in Combinations in Complex Spheroids
A high-throughput screen of multi-cell type tumor spheroids was designed to identify active combinations of DNA G-quadruplex stabilizer agents and targeted small molecules. Complex spheroids include a stromal component modeled by human endothelial cells (HUVEC) and fibroblasts modeled by human mesenchymal stem cells (MSCs). The concentration ranges selected for each drug and investigational agent were based upon clinically achievable concentrations if the clinical Cmax of the agent was known.
Compounds. The drugs and investigational agents: pidnarulex (CX-5461; NSC782164), APTO-253 (NSC789042), BRACO-19 (NSC847499), peposertib (NSC802822), ceralasertib (NSC780249), elimusertib (NSC800525), camonsertib (NSC841442), AZD-1390 (NSC803789), olaparib (NSC753686), talazoparib (NSC767125), ART-558 (NSC835418), sotorasib (NSC818433), MRTX-1133 (NSC836407), SN-38 (NSC673596), topotecan (NSC609699), etoposide (NSC141540), doxorubicin (NSC123127), gemcitabine (NSC613327), 5-fluorouracil (NSC19893), paclitaxel (NSC125973), vemurafenib (NSC761431), panobinostat (NSC761190), R-306465 (JNJ-16241199; NSC773264), adavosertib (NSC754352), TP-3654 (NSC805149), carboplatin (NSC241240), KSQ-4279 (NSC840948), and staurosporine (NSC755774) were obtained from the National Cancer Institute (NCI) Developmental Therapeutics Program Chemical Repository (34). The FDA-approved anticancer drug set is available from the NCI Developmental Therapeutics Program. […] The stock solutions were prepared in dimethyl sulfoxide (DMSO, Sigma-Aldrich, St. Louis, MO, cat. D2650) at 800-fold the tested concentration and stored at -70 degrees C prior to their use. All drugs and investigational agents were tested over a range starting from a high concentration at or near the clinical Cmax and decreasing in half-log increments. If the clinical Cmax for an agent had not been determined, the highest concentration tested was 10 microM.
2.3 Cell Culture. All cells were maintained in an incubator at 37 degrees C and 5% CO2 with 95% humidity. The PDC lines were cultured according to standard operating procedures established by the NCI PDMR. All PDCs were thawed and cultured in Matrigel-coated flasks prepared with a working solution of 1X Ham's F-12 nutrient mix, without supplementation (Invitrogen, cat. 11765054), 100 U/mL penicillin-streptomycin (Invitrogen, cat. 15140122), and 2.5% Matrigel (Corning Inc., cat. 354248) for the first three passages. The 857933-349-R-J2-PDC line was cultured in 6C/Colon 1B media, which includes advanced DMEM/F-12 (Thermo Fisher Scientific, cat. 12634028), 10 mM HEPES (Thermo Fisher Scientific, cat. 15630080), 1X GlutaMAX supplement (Thermo Fisher Scientific, cat. 35050061), 0.1 mg/mL primocin (InvivoGen, cat. ant-pm-2), 10% defined fetal bovine serum, heat inactivated (HyClone Laboratories Inc., cat. SH30070.03HI), 50% L-WRN conditioned media (ATCC, cat. CRL-3276), 1.25 mM N-Acetyl-L-cysteine (Sigma-Aldrich, cat. A9165), 10 mM nicotinamide (Sigma-Aldrich, cat. N0636), 1X B-27 supplement (Thermo Fisher Scientific, cat. 17504044), 1X N-2 supplement (Thermo Fisher Scientific, cat. 17502048), 10 microM Y-27632 dihydrochloride (Tocris Bioscience, cat. 1254), and 50 ng/mL human EGF recombinant protein (Thermo Fisher Scientific, cat. PHG0311). The 485176-168-R4-J1-PDC line was cultured in Panc media, which includes all 6C/Colon 1B media components plus 100 ng/mL human FGF-10 (Thermo Fisher Scientific, cat. 100-26), 500 nM SB-431542 (Selleckchem, cat. S1067), and gastrin (Tocris, cat. 3006).
[…]
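Also: spheroids exposed to the agents for seven days.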
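For viability, T/C in this document: percent of DMSO vehicle control viability which is 100%.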

IC50 (curve of first compound, second compound 0.0316 µM): 13 nM
IC50 (curve of first compound, second compound 0.1 µM): 3.49 nM
IC50 (curve of first compound, second compound 0.316 µM): < 0.999 nM
IC50 (curve of first compound, second compound 1 µM): < 0.999 nM
IC50 (curve of first compound, second compound 3.16 µM): < 0.999 nM
IC50 (curve of first compound, second compound 10 µM): < 0.999 nM
Compound: Cc1[nH]c2ccccc2c1CCNCc1ccc(/C=C/C(=O)NO)cc1 + Cc1cnc(CNC(=O)c2c(=O)c3ccc(N4CCCN(C)CC4)nc3n3c2sc2ccccc23)cn1
viability, T/C (second compound 0.0316 µM, first compound 0.000999 µM): 65.8%
viability, T/C (second compound 0.0316 µM, first compound 0.00316 µM): 59.5%
viability, T/C (second compound 0.0316 µM, first compound 0.00999 µM): 52.6%
viability, T/C (second compound 0.0316 µM, first compound 0.0316 µM): 41.3%
viability, T/C (second compound 0.0316 µM, first compound 0.0999 µM): 32%
viability, T/C (second compound 0.0316 µM, first compound 0.316 µM): 16.2%
viability, T/C (second compound 0.1 µM, first compound 0.000999 µM): 56.1%
viability, T/C (second compound 0.1 µM, first compound 0.00316 µM): 48%
viability, T/C (second compound 0.1 µM, first compound 0.00999 µM): 45.2%
viability, T/C (second compound 0.1 µM, first compound 0.0316 µM): 38%
viability, T/C (second compound 0.1 µM, first compound 0.0999 µM): 25.4%
viability, T/C (second compound 0.1 µM, first compound 0.316 µM): 15.1%
viability, T/C (second compound 0.316 µM, first compound 0.000999 µM): 50.4%
viability, T/C (second compound 0.316 µM, first compound 0.00316 µM): 40.7%
viability, T/C (second compound 0.316 µM, first compound 0.00999 µM): 37.5%
viability, T/C (second compound 0.316 µM, first compound 0.0316 µM): 30.9%
viability, T/C (second compound 0.316 µM, first compound 0.0999 µM): 21.7%
viability, T/C (second compound 0.316 µM, first compound 0.316 µM): 9.86%
viability, T/C (second compound 1 µM, first compound 0.000999 µM): 44.3%
viability, T/C (second compound 1 µM, first compound 0.00316 µM): 38.2%
viability, T/C (second compound 1 µM, first compound 0.00999 µM): 34.8%
viability, T/C (second compound 1 µM, first compound 0.0316 µM): 33.1%
viability, T/C (second compound 1 µM, first compound 0.0999 µM): 21.4%
viability, T/C (second compound 1 µM, first compound 0.316 µM): 8.16%
viability, T/C (second compound 3.16 µM, first compound 0.000999 µM): 38.3%
viability, T/C (second compound 3.16 µM, first compound 0.00316 µM): 32.1%
viability, T/C (second compound 3.16 µM, first compound 0.00999 µM): 31.9%
viability, T/C (second compound 3.16 µM, first compound 0.0316 µM): 27.7%
viability, T/C (second compound 3.16 µM, first compound 0.0999 µM): 16.6%
viability, T/C (second compound 3.16 µM, first compound 0.316 µM): 0.13%
viability, T/C (second compound 10 µM, first compound 0.000999 µM): 27.3%
viability, T/C (second compound 10 µM, first compound 0.00316 µM): 31.2%
viability, T/C (second compound 10 µM, first compound 0.00999 µM): 27.7%
viability, T/C (second compound 10 µM, first compound 0.0316 µM): 24.8%
viability, T/C (second compound 10 µM, first compound 0.0999 µM): 16.5%
viability, T/C (second compound 10 µM, first compound 0.316 µM): 0.21%

IC50 (curve of compound): 649 nM and 682 nM and 590 nM
Compound: C=CCn1c(=O)c2cnc(Nc3ccc(N4CCN(C)CC4)cc3)nc2n1-c1cccc(C(C)(C)O)n1
viability, T/C (compound 0.0316 µM): 103% (2×) and 101%
viability, T/C (compound 0.1 µM): 85.9% and 89.3% and 91.3%
viability, T/C (compound 0.316 µM): 73.9% and 70.5% and 70.1%
viability, T/C (compound 1 µM): 35.7% and 39.9% and 32.9%
viability, T/C (compound 3.16 µM): 20.4% and 22.2% and 19.9%
viability, T/C (compound 10 µM): 14.6% and 16.2% and 13.9%

IC50 (curve of compound): 8670 nM and 8460 nM and 7300 nM
Compound: CCCS(=O)(=O)Nc1ccc(F)c(C(=O)c2c[nH]c3ncc(-c4ccc(Cl)cc4)cc23)c1F
viability, T/C (compound 0.0316 µM): 101% and 96% and 115%
viability, T/C (compound 0.1 µM): 91.7% and 116% and 104%
viability, T/C (compound 0.316 µM): 101% and 107% and 113%
viability, T/C (compound 1 µM): 105% and 106% and 99.1%
viability, T/C (compound 3.16 µM): 101% and 87.6% and 96.9%
viability, T/C (compound 10 µM): 42.9% and 43.6% and 32.6%

IC50 (curve of compound): > 10000 nM
Compound: CC(C)n1c(=O)n(C)c2cnc3cc(F)c(-c4ccc(OCCCN5CCCCC5)nc4)cc3c21
viability, T/C (compound 0.0316 µM): 111% and 107% and 105%
viability, T/C (compound 0.1 µM): 102% and 105% and 94.4%
viability, T/C (compound 0.316 µM): 112% and 103% and 93.6%
viability, T/C (compound 1 µM): 95.5% and 97.2% and 101%
viability, T/C (compound 3.16 µM): 96.8% and 95.2% and 92.5%
viability, T/C (compound 10 µM): 69.9% and 73.6% and 72.5%
